Measured values: patent US6620828B2, “Thiazole compounds and pharmaceutical compositions for inhibiting protein kinases and methods for their use” (Agouron Pharmaceuticals, Inc., priority 1999, dated 2003)
Where “and” joins values, the source holds several entries; their conditions need not be identical. Equal values may be shown once.

Target: T1, FAKcd409 (Homo sapiens, UniProt Q05397, P410T)
T1 construct: comprises residues methionine 409 to glutamate 689; made in house; host or cells: baculovirus vector expression system
T1 sequence (Q05397 409-689 P410T): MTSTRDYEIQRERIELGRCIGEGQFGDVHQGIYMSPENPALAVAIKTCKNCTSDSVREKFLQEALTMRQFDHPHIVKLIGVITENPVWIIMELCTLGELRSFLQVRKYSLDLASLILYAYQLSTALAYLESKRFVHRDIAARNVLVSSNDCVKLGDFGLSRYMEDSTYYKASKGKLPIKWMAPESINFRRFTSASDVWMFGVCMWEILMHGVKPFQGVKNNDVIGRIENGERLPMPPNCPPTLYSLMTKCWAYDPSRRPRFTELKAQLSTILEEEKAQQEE
Assay: FAK HTS assay
Type: biochemical
Conditions: 10 uM compound, HTS Delphia assay; 10 µM

## CCCNc1nc(N)c(-c2nc(-c3cccc(O)c3)cs2)s1 [A(29), 3-(4′-Amino-2′-propylamino-[2,5′]bithiazolyl-4-yl)-phenol]
  % inhibition of FAK: −6% and −11% and −8%
